Source: article PMC10790229 (Journal of medicinal chemistry, 2023)

What was measured:
Type in all cases: cell-based
HIV-1 IIIB = assay: Anti-HIV-1 activity in MT-4 cells; conditions: MT-4 cells; for SI IIIB (CC50/EC50): HIV-1 IIIB
HIV-2 ROD = assay: Anti-HIV-2 activity in MT-4 cells; conditions: HIV-2 ROD; for EC50: read-out: EC50 ROD, 50% protection of MT-4 cells against HIV-induced cytotoxicity
MT-4 cells = assay: Cytotoxicity in uninfected MT-4 cells

Compound | SI IIIB (CC50/EC50) (HIV-1 IIIB) | Ratio IIIB(EC50)/ROD(EC50) (HIV-1 IIIB) | SI ROD (CC50/EC50) (HIV-2 ROD; MT-4 cells) | EC50 (HIV-2 ROD) [nM] | CC50 (MT-4 cells) [nM] | fold improvement of anti-HIV-2 potency over PF74 (HIV-2 ROD; MT-4 cells) [fold]
(S)-2-(4-((4-Aminophenyl)sulfonyl)-2-oxopiperazin-1-yl)-N-(1-(7-chloro-3-(4-methoxyphenyl)-4-oxo-3,4-dihydroquinazolin-2-yl)-2-phenylethyl)acetamide [12c1] | >290.70 | 6.10 | >1736.11 | 100 ± 20 | > 178000 | 
COc1ccc(-n2c([C@H](Cc3cc(F)cc(F)c3)NC(=O)CN3CCN(S(=O)(=O)c4ccc(N)cc4)CC3=O)nc3cc(Cl)ccc3c2=O)cc1 [12c2, (S)-2-(4-((4-Aminophenyl)sulfonyl)-2-oxopiperazin-1-yl)-N-(1-(7-chloro-3-(4-methoxyphenyl)-4-oxo-3,4-dihydroquinazolin-2-yl)-2-(3,5-difluorophenyl)ethyl)acetamide] | >1250.00 | 1.75 | >2083.33 | 80 ± 10 | > 170000 | 47
COc1ccc(-n2c([C@H](Cc3ccccc3)NC(=O)CN3CCN(S(=O)(=O)c4ccc([N+](=O)[O-])cc4)CC3=O)nc3cc(Cl)ccc3c2=O)cc1 [11c1, (S)-N-(1-(7-Chloro-3-(4-methoxyphenyl)-4-oxo-3,4-dihydroquinazolin-2-yl)-2-phenylethyl)-2-(4-((4-nitrophenyl)sulfonyl)-2-oxopiperazin-1-yl)acetamide] | >79.11 | 5.14 | >403.23 | 420 ± 40 | > 171000 | 
COc1ccc(-n2c([C@H](Cc3ccccc3)NC(=O)CN3CCN(S(=O)(=O)c4ccc([N+](=O)[O-])cc4)CC3=O)nc3cc(Br)ccc3c2=O)cc1 [11d1, (S)-N-(1-(7-Bromo-3-(4-methoxyphenyl)-4-oxo-3,4-dihydroquinazolin-2-yl)-2-phenylethyl)-2-(4-((4-nitrophenyl)sulfonyl)-2-oxopiperazin-1-yl)acetamide] | >67.20 | 6.67 | >446.43 | 360 ± 30 | > 161000 | 
O=C(CN1CCN(S(=O)(=O)c2ccc([N+](=O)[O-])cc2)CC1=O)N[C@@H](Cc1cc(F)cc(F)c1)c1nc2ccccc2c(=O)n1-c1ccc(S(=O)(=O)N2CCOCC2)cc1 [20a2, (S)-N-(2-(3,5-Difluorophenyl)-1-(3-(4-(morpholinosulfonyl)-phenyl)-4-oxo-3,4-dihydroquinazolin-2-yl)ethyl)-2-(4-((4-nitrophenyl)sulfonyl)-2-oxopiperazin-1-yl)acetamide] | >892.86 | 0.89 | >833.33 | 180 ± 50 | > 147000 | 
(S)-2-(4-((4-Aminophenyl)sulfonyl)-2-oxopiperazin-1-yl)-N-(1-(3-(4-methoxyphenyl)-7-(methylsulfonyl)-4-oxo-3,4-dihydroquinazolin-2-yl)-2-phenylethyl)acetamide [12e1] | >43.71 | 10.97 | >480.77 | 350 ± 30 | > 168000 | 
(S)-N-(2-(3,5-Difluorophenyl)-1-(7-fluoro-3-(4-methoxyphenyl)-4-oxo-3,4-dihydroquinazolin-2-yl)ethyl)-2-(4-((4-nitrophenyl)sulfonyl)-2-oxopiperazin-1-yl)acetamide [11b2] | >337.84 | 1.40 | >480.77 | 350 ± 30 | > 167000 | 
COc1ccc(-n2c([C@H](Cc3cc(F)cc(F)c3)NC(=O)CN3CCN(S(=O)(=O)c4ccc([N+](=O)[O-])cc4)CC3=O)nc3cc(S(C)(=O)=O)ccc3c2=O)cc1 [11e2, (S)-N-(2-(3,5-Difluorophenyl)-1-(3-(4-methoxyphenyl)-7-(methylsulfonyl)-4-oxo-3,4-dihydroquinazolin-2-yl)ethyl)-2-(4-((4-nitrophenyl)sulfonyl)-2-oxopiperazin-1-yl)acetamide] | >83.89 | 4.49 | >378.79 | 410 ± 50 | > 154000 | 
(S)-2-(4-((4-Aminophenyl)sulfonyl)-2-oxopiperazin-1-yl)-N-(2-(3,5-difluorophenyl)-1-(3-(4-methoxyphenyl)-7-(methylsulfonyl)-4-oxo-3,4-dihydroquinazolin-2-yl)ethyl)acetamide [12e2] | >235.85 | 4.53 | >1041.67 | 150 ± 30 | > 160000 | 
COc1ccc(-n2c([C@H](Cc3ccccc3)NC(=O)CN3CCN(S(=O)(=O)c4ccc([N+](=O)[O-])cc4)CC3=O)nc3cc(S(C)(=O)=O)ccc3c2=O)cc1 [11e1, (S)-N-(1-(3-(4-Methoxyphenyl)-7-(methylsulfonyl)-4-oxo-3,4-dihydroquinazolin-2-yl)-2-phenylethyl)-2-(4-((4-nitrophenyl)-sulfonyl)-2-oxopiperazin-1-yl)acetamide] | >58.14 | 8.66 | >500.00 | 320 ± 30 | > 161000 | 
COc1ccc(-n2c([C@H](Cc3cc(F)cc(F)c3)NC(=O)CN3CCN(S(=O)(=O)c4ccc([N+](=O)[O-])cc4)CC3=O)nc3ccccc3c2=O)cc1 [11a2, (S)-N-(2-(3,5-Difluorophenyl)-1-(3-(4-methoxyphenyl)-4-oxo-3,4-dihydroquinazolin-2-yl)ethyl)-2-(4-((4-nitrophenyl)sulfonyl)-2-oxopiperazin-1-yl)acetamide] | >320.51 | 1.29 | >416.67 | 410 ± 40 | > 171000 | 
(S)-N-(1-(7-Chloro-3-(4-methoxyphenyl)-4-oxo-3,4-dihydroquinazolin-2-yl)-2-(3,5-difluorophenyl)ethyl)-2-(4-((4-nitrophenyl)sulfonyl)-2-oxopiperazin-1-yl)acetamide [11c2] | >277.78 | 1.48 | >403.23 | 400 ± 100 | > 163000 | 
(S)-N-(1-(7-Fluoro-3-(4-methoxyphenyl)-4-oxo-3,4-dihydroquinazolin-2-yl)-2-phenylethyl)-2-(4-((4-nitrophenyl)sulfonyl)-2-oxopiperazin-1-yl)acetamide [11b1] | >88.03 | 3.55 | >312.50 | 560 ± 140 | > 175000 | 
COc1ccc(-n2c([C@H](Cc3ccccc3)NC(=O)CN3CCN(S(=O)(=O)c4ccc([N+](=O)[O-])cc4)CC3=O)nc3ccccc3c2=O)cc1 [11a1, (S)-N-(1-(3-(4-Methoxyphenyl)-4-oxo-3,4-dihydroquinazolin-2-yl)-2-phenylethyl)-2-(4-((4-nitrophenyl)sulfonyl)-2-oxopiperazin-1-yl)acetamide] | >119.05 |  | >312.50 |  |  | 
Nc1ccc(S(=O)(=O)N2CCN(CC(=O)N[C@@H](Cc3cc(F)cc(F)c3)c3nc4ccccc4c(=O)n3-c3ccc(S(=O)(=O)N4CCS(=O)(=O)CC4)cc3)C(=O)C2)cc1 [21b2, (S)-2-(4-((4-Aminophenyl)sulfonyl)-2-oxopiperazin-1-yl)-N-(2-(3,5-difluorophenyl)-1-(3-(4-((1,1-dioxidothiomorpholino)sulfonyl)-phenyl)-4-oxo-3,4-dihydroquinazolin-2-yl)ethyl)acetamide] | >95.42 | 2.52 | >240.38 | 600 ± 150 | > 144000 | 
(S)-2-(4-((4-Aminophenyl)sulfonyl)-2-oxopiperazin-1-yl)-N-(1-(3-(4-methoxyphenyl)-4-oxo-3,4-dihydroquinazolin-2-yl)-2-phenylethyl)acetamide [12a1] | >290.70 | 4.27 | >1250.00 | 150 ± 40 | > 187000 | 
Nc1ccc(S(=O)(=O)N2CCN(CC(=O)N[C@@H](Cc3ccccc3)c3nc4ccccc4c(=O)n3-c3ccc(S(=O)(=O)N4CCS(=O)(=O)CC4)cc3)C(=O)C2)cc1 [21b1, (S)-2-(4-((4-Aminophenyl)sulfonyl)-2-oxopiperazin-1-yl)-N-(1-(3-(4-((1,1-dioxidothiomorpholino)sulfonyl)phenyl)-4-oxo-3,4-dihydroquinazolin-2-yl)-2-phenylethyl)acetamide] | >75.76 | 3.67 | >277.78 | 540 ± 130 | > 150000 | 
COc1ccc(-n2c([C@H](Cc3ccccc3)NC(=O)CN3CCN(S(=O)(=O)c4ccc(N)cc4)CC3=O)nc3cc(F)ccc3c2=O)cc1 [12b1, (S)-2-(4-((4-Aminophenyl)sulfonyl)-2-oxopiperazin-1-yl)-N-(1-(7-fluoro-3-(4-methoxyphenyl)-4-oxo-3,4-dihydroquinazolin-2-yl)-2-phenylethyl)acetamide] | >223.21 | 5.47 | >1250.00 | 150 ± 30 | > 183000 | 
O=C(CN1CCN(S(=O)(=O)c2ccc([N+](=O)[O-])cc2)CC1=O)N[C@@H](Cc1ccccc1)c1nc2ccccc2c(=O)n1-c1ccc(S(=O)(=O)N2CCS(=O)(=O)CC2)cc1 [20b1, (S)-N-(1-(3-(4-((1,1-Dioxidothiomorpholino)sulfonyl)phenyl)-4-oxo-3,4-dihydroquinazolin-2-yl)-2-phenylethyl)-2-(4-((4-nitrophenyl)sulfonyl)-2-oxopiperazin-1-yl)acetamide] | >11.47 | 17.29 | >198.41 | 730 ± 160 | > 145000 | 
